Test results reported in the supplement of paper PMC10307832.

Key:
Assay in all cases: relative viability (nuclei count vs DMSO), 5 days (fraction); higher = more cells survive
COR-L 105 = system: COR-L 105
Outline: (§1)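 Dosing by pin tool came one day after lung cancer cell lines were seeded in 1536-well plates, using either one drug or a fixed anchor-drug dose plus five library-drug doses (not always all listed) in √10 steps. After 5 days, nuclei were counted on 4× images. Relative viability is treated-well nuclei count divided by vehicle-well nuclei count, and values are medians of duplicate plates.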

NCI-H650 = system: NCI-H650
Outline: as §1

NCI-H1993 = system: NCI-H1993
Outline: as §1

LXF-289 = system: LXF-289
Outline: as §1

H3255 = system: H3255
Outline: as §1

NCI-H2087 = system: NCI-H2087
Outline: as §1

HCC-78 = system: HCC-78
Outline: as §1

NCI-H2126 = system: NCI-H2126
Outline: as §1

EMC-BAC-2 = system: EMC-BAC-2
Outline: as §1

NCI-H2170 = system: NCI-H2170
Outline: as §1

HOP-62 = system: HOP-62
Outline: as §1

SK-MES-1 = system: SK-MES-1
Outline: as §1

NCI-H1563 = system: NCI-H1563
Outline: as §1

201T = system: 201T
Outline: as §1

LC-2-ad = system: LC-2-ad
Outline: as §1

UMC-11 = system: UMC-11
Outline: as §1

NCI-H1395 = system: NCI-H1395
Outline: as §1

RERF-LC-KJ = system: RERF-LC-KJ
Outline: as §1

HARA = system: HARA
Outline: as §1

LU99A = system: LU99A
Outline: as §1

LOU-NH91 = system: LOU-NH91
Outline: as §1

`Cc1cn(-c2cc(NC(=O)c3ccc(C)c(Nc4nccc(-c5cccnc5)n4)c3)cc(C(F)(F)F)c2)cn1` [Nilotinib] + Cc1nc(NC(=O)N2CCC[C@H]2C(N)=O)sc1-c1ccnc(C(C)(C)C(F)(F)F)c1 [Alpelisib] (partner 2 µM) gave a relative viability (COR-L 105; first compound 0.001 µM) of 0.905, a relative viability (COR-L 105; first compound 0.01 µM) of 1.22 and a relative viability (COR-L 105; first compound 0.03162 µM) of 0.92. It also gave a relative viability (COR-L 105; first compound 0.1 µM) of 0.917, a relative viability (NCI-H650; first compound 0.001 µM) of 1 and a relative viability (NCI-H650; first compound 0.003162 µM) of 1.09. For the same molecule, the relative viability (NCI-H650; first compound 0.01 µM) was 1.4, the relative viability (NCI-H650; first compound 0.03162 µM) was 0.989 and the relative viability (NCI-H650; first compound 0.1 µM) was 1.23. For the same molecule, the relative viability (NCI-H1993; first compound 0.001 µM) was 0.716, the relative viability (NCI-H1993; first compound 0.003162 µM) was 0.66 and the relative viability (NCI-H1993; first compound 0.01 µM) was 0.755. For the same molecule, the relative viability (NCI-H1993; first compound 0.03162 µM) was 0.594, the relative viability (NCI-H1993; first compound 0.1 µM) was 0.617 and the relative viability (LXF-289; first compound 0.001 µM) was 1.02. For the same molecule, the relative viability (LXF-289; first compound 0.003162 µM) was 1.26, the relative viability (LXF-289; first compound 0.01 µM) was 1.23 and the relative viability (LXF-289; first compound 0.03162 µM) was 0.935. The relative viability (LXF-289; first compound 0.1 µM) was 0.93, the relative viability (H3255; first compound 0.001 µM) was 0.681 and the relative viability (H3255; first compound 0.003162 µM) was 0.699. The relative viability (H3255; first compound 0.01 µM) was 0.829, the relative viability (H3255; first compound 0.03162 µM) was 0.65 and the relative viability (H3255; first compound 0.1 µM) was 0.796. The relative viability (NCI-H2087; first compound 0.001 µM) was 0.831, the relative viability (NCI-H2087; first compound 0.003162 µM) was 1.08 and the relative viability (NCI-H2087; first compound 0.01 µM) was 1.23. It also gave a relative viability (NCI-H2087; first compound 0.03162 µM) of 0.938, a relative viability (NCI-H2087; first compound 0.1 µM) of 0.794 and a relative viability (HCC-78; first compound 0.001 µM) of 0.347. It also gave a relative viability (HCC-78; first compound 0.003162 µM) of 0.381, a relative viability (HCC-78; first compound 0.01 µM) of 0.444 and a relative viability (HCC-78; first compound 0.03162 µM) of 0.34. For the same molecule, the relative viability (HCC-78; first compound 0.1 µM) was 0.382, the relative viability (NCI-H2126; first compound 0.001 µM) was 0.732 and the relative viability (NCI-H2126; first compound 0.003162 µM) was 0.809. The relative viability (NCI-H2126; first compound 0.01 µM) was 0.85, the relative viability (NCI-H2126; first compound 0.03162 µM) was 0.829 and the relative viability (NCI-H2126; first compound 0.1 µM) was 0.575. It also gave a relative viability (EMC-BAC-2; first compound 0.001 µM) of 0.728, a relative viability (EMC-BAC-2; first compound 0.003162 µM) of 0.893 and a relative viability (EMC-BAC-2; first compound 0.01 µM) of 0.883. The relative viability (EMC-BAC-2; first compound 0.03162 µM) was 0.668, the relative viability (EMC-BAC-2; first compound 0.1 µM) was 0.787 and the relative viability (NCI-H2170; first compound 0.001 µM) was 0.865. For the same molecule, the relative viability (NCI-H2170; first compound 0.003162 µM) was 0.916, the relative viability (NCI-H2170; first compound 0.01 µM) was 1.15 and the relative viability (NCI-H2170; first compound 0.03162 µM) was 0.767. For the same molecule, the relative viability (NCI-H2170; first compound 0.1 µM) was 1.07, the relative viability (HOP-62; first compound 0.001 µM) was 0.889 and the relative viability (HOP-62; first compound 0.003162 µM) was 0.843. It also gave a relative viability (HOP-62; first compound 0.01 µM) of 1.13, a relative viability (HOP-62; first compound 0.03162 µM) of 0.742 and a relative viability (HOP-62; first compound 0.1 µM) of 0.7. The relative viability (SK-MES-1; first compound 0.001 µM) was 0.881, the relative viability (SK-MES-1; first compound 0.003162 µM) was 1.15 and the relative viability (SK-MES-1; first compound 0.01 µM) was 0.95. It also gave a relative viability (SK-MES-1; first compound 0.03162 µM) of 0.829, a relative viability (SK-MES-1; first compound 0.1 µM) of 1.01 and a relative viability (NCI-H1563; first compound 0.001 µM) of 0.738. For the same molecule, the relative viability (NCI-H1563; first compound 0.003162 µM) was 0.905, the relative viability (NCI-H1563; first compound 0.01 µM) was 0.839 and the relative viability (NCI-H1563; first compound 0.03162 µM) was 0.849. It also gave a relative viability (NCI-H1563; first compound 0.1 µM) of 0.79, a relative viability (201T; first compound 0.003162 µM) of 1.11 and a relative viability (201T; first compound 0.01 µM) of 1.09. For the same molecule, the relative viability (201T; first compound 0.1 µM) was 1.07, the relative viability (LC-2-ad; first compound 0.001 µM) was 0.876 and the relative viability (LC-2-ad; first compound 0.003162 µM) was 1. It also gave a relative viability (LC-2-ad; first compound 0.01 µM) of 1.03, a relative viability (LC-2-ad; first compound 0.03162 µM) of 0.918 and a relative viability (LC-2-ad; first compound 0.1 µM) of 0.833. The relative viability (UMC-11; first compound 0.001 µM) was 0.928, the relative viability (UMC-11; first compound 0.003162 µM) was 1.15 and the relative viability (UMC-11; first compound 0.01 µM) was 1.07. The relative viability (UMC-11; first compound 0.1 µM) was 1.22, the relative viability (NCI-H1395; first compound 0.001 µM) was 0.877 and the relative viability (NCI-H1395; first compound 0.003162 µM) was 0.929. The relative viability (NCI-H1395; first compound 0.03162 µM) was 0.977, the relative viability (NCI-H1395; first compound 0.1 µM) was 0.99 and the relative viability (RERF-LC-KJ; first compound 0.001 µM) was 0.788. For the same molecule, the relative viability (RERF-LC-KJ; first compound 0.003162 µM) was 0.831, the relative viability (RERF-LC-KJ; first compound 0.01 µM) was 0.838 and the relative viability (RERF-LC-KJ; first compound 0.03162 µM) was 0.727. For the same molecule, the relative viability (RERF-LC-KJ; first compound 0.1 µM) was 0.777, the relative viability (HARA; first compound 0.001 µM) was 0.723 and the relative viability (HARA; first compound 0.003162 µM) was 0.915. The relative viability (HARA; first compound 0.01 µM) was 1.06, the relative viability (HARA; first compound 0.03162 µM) was 0.551 and the relative viability (HARA; first compound 0.1 µM) was 0.821. It also gave a relative viability (LU99A; first compound 0.001 µM) of 0.495, a relative viability (LU99A; first compound 0.003162 µM) of 0.531 and a relative viability (LU99A; first compound 0.01 µM) of 0.518. It also gave a relative viability (LU99A; first compound 0.03162 µM) of 0.48, a relative viability (LU99A; first compound 0.1 µM) of 0.377 and a relative viability (LOU-NH91; first compound 0.001 µM) of 0.741. The relative viability (LOU-NH91; first compound 0.003162 µM) was 0.7, the relative viability (LOU-NH91; first compound 0.01 µM) was 0.802 and the relative viability (LOU-NH91; first compound 0.03162 µM) was 0.707. It also gave a relative viability (LOU-NH91; first compound 0.1 µM) of 0.676.
